Values after ≈ are worked out from the molar mass of the structure shown. Where two headings read alike, the source gives them in different places.
Legend:
human TRPV1 [1] = target: T1, human TRPV1 (Homo sapiens, UniProt Q8NER1); experiment: pH-based assay (Fura-2 AM Ca2+ response to low pH, TRPV1/CHO cells)
Method: For this Protocol, a Chinese Hamster Ovary cell line (CHO) that constitutively expresses human TRPV1 is used (TRPV1/CHO cells).
TRPV1/CHO cells are seeded in the 96-well clear-bottom black-wall plate (Nunc) at densities of 1-2×10^4 cells/well and grown in 100 μL of culture medium (alpha-MEM supplemented with 10% FBS, 20 mM HEPES, 1 mg/mL geneticin and 1% antibiotic-antimycotic mixed stock solution) for 1-2 days before the experiment.
(2) The 96-well plate is incubated at 37° C. for 45 min.
(3) The loading buffer is removed from each well. […] The wells are then refilled with 80 μL of measuring buffer.
(4) After an incubation at 4° C. for 15 min, the 96-well plate is transferred to FDSS-3000 (Hamamatsu photonics, Japan).
(5) The Fura-2 fluorescent intensity is monitored at a wavelength of 340 nm and at 380 nm, respectively, at a rate of 0.5 Hz for a total of 240 seconds. After 16 time points (32 sec) of baseline detection, 20 μL of agonist solution is added to each well. […]
(6) Fluorescence intensity ratio refers to the fluorescence intensity at 340 nm over the fluorescence intensity at 380 nm at a particular time point. […]
(7) Maximal signal ratios from each well are calculated as output data using the FDSS-3000 analysis program. Data are analyzed using Excel (Microsoft) and XLfit (idbs) software. […]
(6) Fura-2 fluorescent intensity is monitored as described in 2.2.(5) of this Protocol. […]

human TRPV1 [2] = target: T1, human TRPV1; experiment: Capsaicin-based assay (Fluo-4 calcium fluorescence, TRPV1/CHO cells); format: cell-based; design: expressed in transfected cells
Method: One day prior to assay, TRPV1/CHO cells are seeded in 96-well clear-bottom black plates (20,000 cells/well) in growth media. On the day of the experiment, the cells are washed with 0.2 ml 1× Hank's Balanced Salt Solution (Life Technologies) containing 1.6 mM CaCl2 and 20 mM HEPES, pH 7.4 (“wash buffer”). Subsequently, the cells are loaded by incubation in 0.1 ml of wash buffer containing Fluo-4 at 3 µM final concentration. After 1 hour, the cells are washed twice with 0.2 ml wash buffer and resuspended in 0.1 ml wash buffer. The plates are then transferred to a Fluorescence Imaging Plate Reader (Molecular Devices). Fluorescence intensity is monitored for 15 seconds to establish a baseline. Subsequently, test compounds diluted in assay buffer (1× Hank's Balanced Salt Solution containing 1 mM CaCl2 and 20 mM HEPES, pH 7.4) containing 1% DMSO are added to the cell plate and fluorescence is monitored for 2 minutes. […] Human TRPV1 is then activated by the addition of 50 μL capsaicin (100 nM final concentration) and plates incubated for an additional 3 min. Data are collected over the entire time course and analyzed using Excel and the curve-fitting Formula GraphPad Prism.

[3] = Solubility of diol compounds in aqueous solution; format: physicochemical
[4] = pH 1.2, read-out: Solubility (μM) pH: 1.2
[5] = pH 6.8, aqueous buffer, read-out: Solubility (μM) pH: 6.8
[6] = TRPV1/CHO cells, capsaicin 100 nM final concentration, read-out: Potency, IC50(nM) Capsaicin assay

T1 sequence (Q8NER1 whole entry): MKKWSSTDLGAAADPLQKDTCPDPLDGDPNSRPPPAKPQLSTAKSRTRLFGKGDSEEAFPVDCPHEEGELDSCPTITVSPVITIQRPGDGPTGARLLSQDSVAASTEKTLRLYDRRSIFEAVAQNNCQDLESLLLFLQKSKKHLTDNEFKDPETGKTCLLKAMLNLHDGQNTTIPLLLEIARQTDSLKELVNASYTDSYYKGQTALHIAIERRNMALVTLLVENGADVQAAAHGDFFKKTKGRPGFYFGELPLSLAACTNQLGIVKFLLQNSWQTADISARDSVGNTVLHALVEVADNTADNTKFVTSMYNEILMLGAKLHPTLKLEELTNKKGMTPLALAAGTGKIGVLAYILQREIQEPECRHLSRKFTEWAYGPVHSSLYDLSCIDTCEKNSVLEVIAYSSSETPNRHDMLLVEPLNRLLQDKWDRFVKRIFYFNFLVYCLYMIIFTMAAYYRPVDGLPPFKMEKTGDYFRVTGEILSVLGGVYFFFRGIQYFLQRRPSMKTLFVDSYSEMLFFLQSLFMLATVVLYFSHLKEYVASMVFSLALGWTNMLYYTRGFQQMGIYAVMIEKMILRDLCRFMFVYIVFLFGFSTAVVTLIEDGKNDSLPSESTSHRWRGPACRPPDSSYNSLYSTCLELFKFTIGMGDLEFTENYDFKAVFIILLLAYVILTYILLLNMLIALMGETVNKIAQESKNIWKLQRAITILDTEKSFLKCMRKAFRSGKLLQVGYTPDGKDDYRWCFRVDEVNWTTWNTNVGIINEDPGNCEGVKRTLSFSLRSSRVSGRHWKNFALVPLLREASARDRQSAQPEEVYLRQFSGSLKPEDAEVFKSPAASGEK

Structure (SMILES)	IC50 (human TRPV1 [1]) [nM]	IC50 (human TRPV1 [2]) [nM]	solubility [3, 4] [µM]	solubility [3, 5] [µM]	IC50 (human TRPV1 [2]; [6]) [nM]
O=C(Nc1ccc(C(F)(F)F)cc1)C1=CCN(c2ncc([C@H](O)CO)cc2F)CC1 [Compound A14]	9.5 ± 2.5	23.8 ± 6.2	> 50	19 (≈ 8.08 µg/mL)	–
O=C(Nc1ccc(C(F)(F)F)cc1)C1=CCN(c2ncc([C@@H](O)CO)cc2F)CC1 [Compound B14]	14.7 ± 1.01	29.4 ± 6.3	–	–	–
O=C(Nc1ccc(C(F)(F)F)cn1)C1=CCN(c2ncc([C@H](O)CO)cc2F)CC1 [Compound E2]	–	–	> 50	25 (≈ 10.7 µg/mL)	45.9 ± 4.2
O=C(Nc1ccc(C(F)(F)F)cn1)C1=CCN(c2ncc([C@@H](O)CO)cc2F)CC1 [Compound F2]	–	–	> 50	21 (≈ 8.95 µg/mL)	109 ± 25.5
O=C(Nc1nc2ccc(F)cc2s1)C1=CCN(c2ncc([C@H](O)CO)cc2F)CC1 [Compound I5, (S)-1-(5-(1,2-dihydroxyethyl)-3-fluoropyridin-2-yl)-N-(6-fluorobenzo[d]thiazol-2-yl)-1,2,3,6-tetrahydropyridine-4-carboxamide]	–	–	46 (≈ 19.9 µg/mL)	1 (≈ 0.432 µg/mL)	35.6 ± 5.1

Source: US8389549B2, “Substituted pyridines useful for treating pain” (Purdue Pharma L.P., priority 2007, dated 2013)
